Experiments:
[1] = system: Moderate to severe Crohn's disease (CD) subjects; assay: Phase IIa trial CD-LAQ-201: clinical effect (CDAI remission, response); format: in vivo, human; conditions: for effects on remission and response 100: week 8
Protocol: Overall up to ˜180 Crohn's disease patients are enrolled.
The capsules were prepared using a blend proportional to the 0.6 mg capsules described in PCT International Application No. PCT/US2007/013721 (WO 2007/146248). The capsules were prepared according to the method described in PCT International Application No. PCT/US2007/013721 (WO 2007/146248), which is hereby incorporated by reference into this application.
A loading dose regimen of double the maintenance/intended dose was given during the first two days of study drug treatment. Thereafter, starting on day 3, the daily maintenance/intended dose was administered.
Subjects are required to maintain CDAI diary cards for each day of the screening period and, if randomized, on each day of the treatment and follow-up period. The scores obtained from the seven consecutive diaries completed prior to the baseline visit and to each of weeks 1, 2, 4, 6, 8 and 12 contribute to a total CDAI score at each of the time points.
Moderate to severe Crohn's disease (CD) subjects as determined by a Crohn's Disease Activity Index (CDAI) score of 220-450 (inclusive).
Each dose was studied sequentially in a distinct cohort.
Scheduled in-clinic visits were conducted at screening, baseline and at weeks 1, 2, 4, 6 and 8. […] Subjects who early-discontinues study drug prior to visit week 8 go to follow-up termination visit within 4 weeks (28 days) of study drug discontinuation.
The study exploratory efficacy outcome measures were chosen according to the draft EMEA guidelines for the treatment of active Crohn's disease/induction of remission (EMEA, 2007) • 1. Proportion of subjects in clinical remission (total CDAI score <150) at weeks 4, 6, 8 and 12 (and were not treatment failures). • 2. Proportion of subjects who respond to treatment (decrease from baseline of at least 100 points in CDAI score ore remission) at week 4, 6, 8 and 12. • 3. Time to remission. • 4. Time to response. • 5. C-Reactive Protein (CRP) change from baseline at weeks 2, 4, 6, 8 and 12. • 6. Fecal calprotectin change from baseline to weeks 2, 4, 6, 8 and 12. • 7. Proportion of subjects with a decrease from baseline of at least 50% in the number of open draining fistulas.

[2] = system: fecal calprotectin; assay: Phase IIa trial CD-LAQ-201: changes in fecal calprotectin levels; format: in vivo, human; conditions: for % of patients with a calprotectin decrease from ≧250 μg/g to below 250 μg/g & greater than 50% reduction: Week 8
Text: As used herein, “calprotectin” is a calcium and zinc binding anti-microbial protein released by granulocytes. This protein can be detected in stool and its concentration reflects the number of polymorphonuclear leukocytes (PMN), migrating into the gut lumen. It is therefore considered a bio-marker for intestinal inflammation. […] Proportion of subjects in clinical remission (total CDAI score <150) at weeks 4, 6, 8 and 12 (and were not treatment failures). • 2. Proportion of subjects who respond to treatment (decrease from baseline of at least 100 points in CDAI score ore remission) at week 4, 6, 8 and 12. • 3. Time to remission. • 4. Time to response. • 5. C-Reactive Protein (CRP) change from baseline at weeks 2, 4, 6, 8 and 12. • 6. Fecal calprotectin change from baseline to weeks 2, 4, 6, 8 and 12. • 7. Proportion of subjects with a decrease from baseline of at least 50% in the number of open draining fistulas.

[3] = Previous pharmacokinetic studies of laquinimod; format: in vivo; conditions: loading dose regimen (double dose on first two days)
Text: In order to decrease thee time to steady state and potentially decrease time to response, a loading dose regimen described below was used to allow steady state levels to be reached in approximately 6-7 days.

[4] = in vivo; cited from earlier work

CCN(C(=O)c1c(O)c2c(Cl)cccc2n(C)c1=O)c1ccccc1 [laquinimod]
effects on remission and response 100 ([1]; 0.5 mg/day): effects on remission and response 100 were observed | effects on remission and response 100 ([1]; 1 mg/day): lower magnitude effects | effects on remission and response (conclusion) ([1]; 0.5 and 1 mg doses): clinically relevant effects | time at which clinical remission was achieved ([1]; laquinimod 0.5 mg/day group): ≥ 2 week | time at which response 100 was achieved ([1]; laquinimod 0.5 mg/day group): 7 days | time to clinical remission and response 100 versus pooled placebo ([1]; laquinimod 0.5 mg/day group): earlier than patients in the pooled placebo group | % Change from Baseline in fecal calprotectin level at Week 8, Mean ± SD ([2]; Laq 0.5 mg): 25.5 ± 132.93% | % Change from Baseline in fecal calprotectin level at Week 8, Median ([2]; Laq 0.5 mg): −23.1% | % of patients with a calprotectin decrease from ≧250 μg/g to below 250 μg/g & greater than 50% reduction ([2]; Laq 0.5 mg): 38.9% | % Change from Baseline in fecal calprotectin level at Week 8, Mean ± SD ([2]; Laq 1.0 mg): 0.2 ± 91.55% | % Change from Baseline in fecal calprotectin level at Week 8, Median ([2]; Laq 1.0 mg): −14.4% | % of patients with a calprotectin decrease from ≧250 μg/g to below 250 μg/g & greater than 50% reduction ([2]; Laq 1.0 mg): 38.9% | % Change from Baseline in fecal calprotectin level at Week 8, Mean ± SD ([2]; Laq 1.5 mg): 13.9 ± 108.97% | % Change from Baseline in fecal calprotectin level at Week 8, Median ([2]; Laq 1.5 mg): −18.7% | % of patients with a calprotectin decrease from ≧250 μg/g to below 250 μg/g & greater than 50% reduction ([2]; Laq 1.5 mg): 26.7% | % Change from Baseline in fecal calprotectin level at Week 8, Mean ± SD ([2]; Laq 2.0 mg): 44.3 ± 198.71% | % Change from Baseline in fecal calprotectin level at Week 8, Median ([2]; Laq 2.0 mg): −20.1% | % of patients with a calprotectin decrease from ≧250 μg/g to below 250 μg/g & greater than 50% reduction ([2]; Laq 2.0 mg): 36.4% | effect on fecal calprotectin ([2]; all doses (0.5-2 mg/day)): reduced fecal calprotectin | objective measures of intestinal inflammation in active CD ([2]; all doses (LAQ 0.5-2 mg/day)): reduce objective measures of intestinal inflammation | percentage of patients with fecal calprotectin ≧250 μg/g at baseline showing at least a 50% reduction and levels <250 μg/g at Week 8 ([2]; laquinimod groups (all doses), pooled placebo 13.6%): 26.7-38.9% | time to steady state levels [3]: 6 to 7 days | oral bioavailability [4]: high

— patent US9161935B2 (TEVA PHARMACEUTICAL INDUSTRIES, LTD., priority 2012, dated 2015)
